Entries after “also recorded” stand apart in the source; their conditions may differ. Read-outs that look alike come from different tables or passages of the source.
Experiments:
[1] = cited from earlier work; for pKa* pseudo: excited state, photoluminescence titration, Henderson-Hasselbalch analysis; for pKa: ground state
[2] = Ground-state and excited-state acidities of aromatic-amine-based photoacids (Table 1); settings: pKa* pseudo minus pKa
Source text: Because the Henderson-Hasselbalch equation is derived for proton-transfer reactions at thermal and chemical equilibrium, it is agnostic to whether the ESPT acceptor species are H2O(l) or OH^−(aq), but it does require that the system has reached excited-state quasi-equilibrium.
Observed rate constants can be determined for excited-state proton transfer from weak photoacids to a series of proton-accepting quenchers.

[3] = Stability of dye fluorescence near an operating gas diffusion electrode
[4] = Acid-base titration of aqueous photoacid with absorption and steady-state photoluminescence detection (Henderson-Hasselbalch / Stern-Volmer fits, OH− as quencher); settings: for bimolecular rate constant k+q,ss,OH−: steady-state data, forward direction of Reaction 1 with B=OH−(aq); for predicted pK*a pseudo (Equation 5): from bimolecular rate constant and excited-state lifetime
Source text: FIGS. 2A through 2C illustrate acid-base titration of an aqueous solution of NS—NH2 photoacid with absorption and photoluminescence detection in accordance with an embodiment.
where aOH− is the activity of OH^−(aq), K*b pseudo is an erroneous observed equilibrium constant for base dissociation and KSV,OH− is the Stern-Volmer quenching constant, which is strictly dimensionless but reported here in units of M^−1 to be consistent with its typical usage. Unlike the Henderson-Hasselbalch equation, the Stern-Volmer equation is also applicable to non-equilibrium processes.
and KSV,OH−=k+q,OH−τo,PAH*, where τ is the excited-state lifetime (s) of NS—NH2* in the absence (τo,PAH*) or presence (τPAH*) of OH^− quencher and k+q,OH− is the bimolecular rate constant (M^−1 s^−1) for quenching of NS—NH2* by OH^− (forward direction of Reaction 1 with B=OH^−(aq)).
Several embodiments use the steady-state ultraviolet-visible electronic absorption and photoluminescence spectroscopy for characterization. Equal amounts of aromatic amine photoacids are portioned into five separate 100 mL volumetric flasks. For the non-proton-accepting quencher experiments, the five flasks are filled to the volumetric marker with aqueous solutions of 1 M HCl, 1 M KOH, 2 M KOH, 3 M KOH, and 4 M KOH. The aqueous 1 M KOH solution is titrated with the aqueous 1 M HCl solution to reach the desired pH values from 14 to 6, and the H^+ activities are measured using a pH meter (pH/Ion 510). […] Electronic absorption spectra and photoluminescence spectra are acquired using absorbance and fluorescence spectrometer(s), using a square-bottom quartz cuvette (1 cm path length) at room temperature. Electronic absorption spectra are baselined on a spectrum of deionized water and were corrected for scattering of light. Photoluminescence spectra are recorded by exciting with 310 nm light, slit widths for the excitation and emission monochromators were set to 5 nm, and the PMT detector voltage is set to 600 V. Photoluminescence spectra are corrected for changes in solution refractive index, inner filter effects and the wavelength-dependent correction factor of the fluorimeter. For experiments that use non-OH^− proton-accepting quenchers, equal amounts of the quencher are added to the dry volumetric flask intended to form the acidic and basic aqueous photoacid solutions, to prevent changes in total quencher concentration during the titration, and titrations are performed similarly to those in the absence of added proton-accepting quenchers. Although the total quencher concentration is kept constant throughout the titration, the activity of the deprotonated quencher species varied as a function of solution pH according to Equation 3. Ionic strength is matched at the most alkaline pH values; however, it is experimentally difficult to maintain the same ionic strength throughout the titration. Normalized photoluminescence intensities as a function of solution pH are obtained by dividing the corrected photoluminescence intensities at the wavelength of maximum photoluminescence to the maximum corrected photoluminescence intensity at the same wavelength.

| Compound | pKa* pseudo [1] | ΔpKa pseudo [2] | pKa [1] | other results |
| --- | --- | --- | --- | --- |
| 2-aminonaphthalene-6-sulfonate | 11.86 | – | – | – |
| Nc1cccc2c1C(=O)c1cccc(N)c1C2=O [1,5-diaminoanthraquinone] | 12.3 | < −1.7 | >14 | – |
| Nc1cc2ccccc2cc1N [2,3-diaminonaphthalene] | 12.9 | < −3.1 | >16 | – |
| Nc1ccc2c(c1)C(=O)c1ccc(N)cc1C2=O [2,6-diaminoanthraquinone] | 14.2 | < −1.4 | >15.6 | – |
| Nc1ccc2c(c1)Cc1cc(N)ccc1-2 [2,7-diaminofluorene] | 13.9 | < −2.1 | >16 | – |
| CNc1ccccc1-c1nc2ccccc2n1C [2-(2′-N-methyl-aminophenyl)-N-methylbenzimidazole] | 12.2 | – | – | – |
| Nc1cc2ccccc2cc1C(=O)O [2-amino-3-naphthoic acid] | 12.8 | < 3.2 | >16 | – |
| Nc1ccccc1-c1ccccc1 [2-aminobiphenyl] | 12.1 | < −2.9 | >15.0 | – |
| Nc1ccc2c(c1)Cc1ccccc1-2 [2-aminofluorene] | 13.0 | – | – | – |
| Nc1ccc2ccccc2c1 [2-naphthylamine] | 11.75 | −3.2 | 14.95 | – |
| c1ccc(-c2cc(-c3ccccc3)[nH]n2)cc1 [3,5-diphenylpyrazole] | 12.64 | −0.3 | 12.94 | – |
| Nc1cccc(-c2ccccc2)c1 [3-aminobiphenyl] | 12.0 | < −3.0 | >15.0 | – |
| Nc1cnc2ccccc2c1 [3-aminoquinoline] | 12.1 | – | – | – |
| COc1n[nH]c2ccccc12 [3-methoxyindazole] | 11.7 | −2.3 | 14.0 | – |
| Nc1ccc(Nc2ccc(N)cc2)cc1 [4,4′-diaminodiphenylamine] | 13.5 | < −0.7 | >14.2 | – |
| Nc1ccc(-c2ccccc2)cc1 [4-aminobiphenyl] | 14.25 | < −1.25 | >15.5 | – |
| Nc1ccc(Nc2ccccc2)cc1 [4-aminodiphenylamine] | 11.2 | < −4.8 | >16.0 | – |

| Compound | pKa* pseudo [1] | ΔpKa pseudo [2] | pKa [1] | other results |
| --- | --- | --- | --- | --- |
| Nc1ccc2[nH]ccc2c1 [5-aminoindole] | 14 | −2.1 | 16.1 | – |
| Nc1cc2c3ccccc3ccc2c2ccccc12 [6-aminochrysene] | 12.6 | < −1.4 | >14 | – |
| Nc1ccc(C(=O)O)cn1 [6-aminonicotinic acid] | 14.2 | – | – | – |
| Nc1cc2ccccc2c2ccccc12 [9-phenanthrylamine] | 12.18 | < −1.82 | >14 | – |
| Nc1cc(S(=O)(=O)[O-])c2ccc3c(S(=O)(=O)[O-])cc(S(=O)(=O)[O-])c4ccc1c2c43.[Na+].[Na+].[Na+] [APTS, 8-aminopyrene-1,3,6-trisulfonic acid trisodium salt] | – | – | – | colour of stock solution after exposure ([3]; 10 mM stock solution exposed to −100 mA/cm^2 for 30 minutes): from bright green to brown; photoluminescence intensity during GDE operation ([3]; high current densities (magnitudes >80 mA/cm^2), trisodium salt): degrades and slowly loses its fluorescence; also recorded: decrease in photoluminescence intensity; steady-state photoluminescence spectrum versus dissolved inorganic carbon ([3]; increasing concentration of dissolved inorganic carbon): minimal change in intensity; calibration curve after degradation versus fresh solutions ([3]; stock solution exposed to −100 mA/cm^2 for 5 minutes): nearly identical; degradation, pH 7.1 versus pH 3 solution ([3]; with and without light): degradation effect is more pronounced for the pH 3 solution; pKa [4]: > 14; bimolecular rate constant k+q,ss,OH− [4]: (2.992±0.004)×10^9 M^−1 s^−1; pK*a pseudo (Henderson-Hasselbalch fit) ([4]; steady-state photoluminescence titration, global fit of two trials): 12.83±0.01 |
| NCCNc1cccc2c(S(=O)(=O)[O-])cccc12.[Na+] [EDANS, 5-((2-aminoethyl)amino)naphthalene-1-sulfonic acid sodium salt] | – | – | – | pKa ([4]; aqueous solution, pKa of the aliphatic primary amine, multi-quencher Stern-Volmer fit): 10.06 ± 0.02; unimolecular rate constant ([4]; excited-state deprotonation by the aliphatic primary amine): (0.95±0.01)×10^8 s^−1; KSV,NH2 ([4]; excited-state deprotonation by the aliphatic primary amine (intramolecular)): 1.20 ± 0.02 M⁻¹; predicted pK*a pseudo (Equation 5) [4]: 12.53±0.06; bimolecular rate constant k+q,ss,OH− [4]: (23±1)×10^8 M^−1 s^−1; KSV,ss,OH− ([4]; steady-state photoluminescence, non-linear Stern-Volmer fit, OH−(aq) quencher): 30 ± 1 M⁻¹ |
| Nc1ccc(Oc2ccc(N)cc2)cc1 [bis(4-aminophenyl)ether] | 11.2 | – | – | – |
| c1ccc2c(c1)[nH]c1ccccc12 [carbazole] | 11.9 | −9.2 | – | – |
| O=C(O)c1cc2ccccc2[nH]1 [indole-2-carboxylic acid] | 12.9 | −4.2 | 17.1 | – |
| O=C(O)c1c[nH]c2ccccc12 [indole-3-carboxylic acid] | 13.1 | −2.5 | 15.6 | – |
| O=C(O)c1cccc2[nH]ccc12 [indole-4-carboxylic acid] | 12.2 | −4.2 | 16.4 | – |
| O=C(O)c1ccc2[nH]ccc2c1 [indole-5-carboxylic acid] | 12.3 | −4.6 | 16.9 | – |
| COc1cccc(N)c1 [m-anisidine] | 13.7 | – | >16 | – |
| COC(=O)c1ccc(N)nc1 [methyl-6-aminonicotinate] | 11.1 | – | – | – |
| COc1ccc(N)cc1 [p-anisidine] | 13.3 | < −2.7 | >16 | – |
| O=S(=O)([O-])c1cccc2cccc(Nc3ccccc3)c12.[Na+] [sodium 8-anilinonaphthalene-1-sulfonate, 8-anilinonaphthalene-1-sulfonic acid sodium salt] | – | – | – | predicted pK*a pseudo (Equation 5) [4]: 13.92±0.04; bimolecular rate constant k+q,ss,OH− [4]: (48±4)×10^8 M^−1 s^−1; KSV,ss,OH− (linearized Stern-Volmer) ([4]; steady-state photoluminescence, traditional linearized Stern-Volmer fit, OH−(aq) quencher): 1.2 ± 0.1 M⁻¹ |
